Results: US20260028354A1, “TETRAHYDRONAPHTHALENE DERIVATIVES AS ESTROGEN RECEPTOR DEGRADERS” (REGENT OF THE UNIVERSITY OF MICHIGAN, priority 2022, published 2026)
Read-outs that look alike come from different tables or passages of the source.

Columns and labels:
CRBN/DDB1 = CRBN/DDB1 (Homo sapiens (Human), UniProt Q96SW2); type: binding; details: His tagged CRBN+DDB1, Cy5-labeled Thalidomide probe, one hour; read-out: CRBN HTRF IC50
Experimental: The binding potency was determined using HTRF assay technology (Perkin Elmer). Compounds were serially diluted in DMSO and […] volume was transferred to white 384-well plate.

ER in T47D cells = ER in T47D cells (Homo sapiens (Human), UniProt P03372); assay: In-cell Western (ICW) ER degradation assay in T47D cells; type: cell-based; details: for DC50: ER degradation
ERα_LBD (GST) = ERα_LBD (GST) (Homo sapiens (Human), UniProt P03372); assay: IC50 measurements for binding to ERα_LBD (GST), LanthaScreen TR-FRET competitive binding; details: ERα_LBD (GST) 4 nM, Fluormone ES2 Green tracer, 60 min; read-out: ERα HTRF IC50
Experimental: In vitro Assay: IC50 Measurements for binding to ERα_LBD (GST) • Final assay conditions: • 1. ERα_LBD (GST) protein: 4 nM • 2. Tb Anti-GST: 2 nM • 3. Fluormone ES2 Green tracer: 3 nM • 4. Incubation time: 60 min • 5. DMSO: 1% • 6. Assay buffer: Adding 1M DTT to Nuclear receptor Buffer K for final 5 mM DTT. • 7. ZPE: 1% DMSO • 8. HPE: 1 μM ARV_471 (positive control) • 9. LanthaScreen® TR-FRET ERα Competitive Binding Assay (ThermoFisher, #A^15887) • 100× Compound preparation
1) Cherry pick 2 μL 10 mM compound stock to column 1 of a 384 intermediate plate. • 2) Add 18 μL DMSO to column 1 to dilute compound to 1 mM. • 3) Transfer 10 μL 1 mM compound to column 1 of a LDV plate. • 2) Add 6 μl DMSO to column 2-10 of the LDV plate. • 3) Compounds undergo 3-fold serial dilution (3 μL+6 μL) in DMSO. • 4) Transfer 120 nL compound solution to assay plate. ZPE: 120 nL 100% DMSO • Procedure:
Complete nuclear receptor buffer K was prepared by adding 1 M DTT to nuclear receptor buffer K for a final concentration of 5 mM DTT. Complete nuclear receptor buffer K must be prepared fresh daily, 2X protein solution was prepared using complete nuclear receptor buffer K containing 8 nM ERα_LBD (GST) and 4 nM Tb Anti-GST. Then, 2X Fluormone ES2 Green tracer (6 nM) was prepared using complete nuclear receptor buffer K. Add 6 μL 2X Fluormone ES2 green tracer into a compound plate (PerkinElmer 6008289) by dragonfly with one-tips-addition. Subsequently, 6 μL 2× protein solution was added into the plate. The 384-well plate was mixed on a plate shaker and incubated at room temperature protected from light for 60 min. The plate was scaled with a cover to minimize evaporation. The plate was read at wavelengths of 520 nm and 495 nm. The TR-FRET ratio was calculated by dividing the emission signal at 520 nm by the emission signal at 495 nm. A binding curve was generated by plotting the emission ratio vs, the log [ligand]. To determine the IC50 value, fit the data using XL-fit for a sigmoidal dose-response.

ER in MCF-7 cells = ER in MCF-7 cells (Homo sapiens (Human), UniProt P03372); assay: In-cell Western (ICW) ER degradation assay in MCF-7 cells; type: cell-based; details: for DC50: MCF-7, ER degradation, read-out: MCF7 DC50
[1] = read-out: T47D Dmax, T47D, maximal ER degradation, 16 hrs treatment
[2] = MCF7, read-out: MCF7 Dmax, MCF-7, maximal ER degradation, 16 hrs treatment
[3] = maximal ER degradation, 16 hrs treatment, read-out: T47D Dmax
[4] = MCF7, MCF-7, maximal ER degradation, 16 hrs treatment, read-out: MCF7 Dmax

ER in MCF-7 cells, sequence (P03372 whole entry): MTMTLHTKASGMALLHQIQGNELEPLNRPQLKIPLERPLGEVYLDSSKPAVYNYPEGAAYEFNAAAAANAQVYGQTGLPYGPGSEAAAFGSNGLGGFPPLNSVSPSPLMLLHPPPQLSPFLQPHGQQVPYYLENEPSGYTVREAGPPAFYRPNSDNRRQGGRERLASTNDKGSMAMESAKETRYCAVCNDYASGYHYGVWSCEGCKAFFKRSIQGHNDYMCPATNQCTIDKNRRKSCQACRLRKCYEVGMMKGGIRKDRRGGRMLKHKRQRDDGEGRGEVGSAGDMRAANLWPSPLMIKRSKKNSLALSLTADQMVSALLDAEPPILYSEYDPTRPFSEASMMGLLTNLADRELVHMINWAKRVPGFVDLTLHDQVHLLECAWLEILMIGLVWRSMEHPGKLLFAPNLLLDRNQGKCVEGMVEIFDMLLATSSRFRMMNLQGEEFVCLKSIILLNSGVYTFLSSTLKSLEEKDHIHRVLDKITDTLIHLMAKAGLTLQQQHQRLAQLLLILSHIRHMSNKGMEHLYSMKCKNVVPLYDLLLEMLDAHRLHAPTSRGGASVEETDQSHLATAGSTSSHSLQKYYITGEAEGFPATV
ER in T47D cells, sequence (P03372 whole entry): as above
CRBN/DDB1, sequence (Q96SW2 whole entry, species assumed): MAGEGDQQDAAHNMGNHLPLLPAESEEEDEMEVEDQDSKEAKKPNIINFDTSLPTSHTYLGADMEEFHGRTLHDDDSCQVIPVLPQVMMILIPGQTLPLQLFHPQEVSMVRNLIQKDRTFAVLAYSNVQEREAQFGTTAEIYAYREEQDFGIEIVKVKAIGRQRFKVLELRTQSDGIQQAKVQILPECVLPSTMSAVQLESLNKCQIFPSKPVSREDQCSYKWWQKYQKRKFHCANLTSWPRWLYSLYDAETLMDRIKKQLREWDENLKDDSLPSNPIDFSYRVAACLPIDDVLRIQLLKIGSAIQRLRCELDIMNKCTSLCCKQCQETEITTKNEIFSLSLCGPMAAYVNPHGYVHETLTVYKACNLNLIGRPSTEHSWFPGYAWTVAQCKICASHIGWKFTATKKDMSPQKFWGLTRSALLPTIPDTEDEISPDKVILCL
CRBN/DDB1, sequence (Q16531 whole entry partner, species assumed): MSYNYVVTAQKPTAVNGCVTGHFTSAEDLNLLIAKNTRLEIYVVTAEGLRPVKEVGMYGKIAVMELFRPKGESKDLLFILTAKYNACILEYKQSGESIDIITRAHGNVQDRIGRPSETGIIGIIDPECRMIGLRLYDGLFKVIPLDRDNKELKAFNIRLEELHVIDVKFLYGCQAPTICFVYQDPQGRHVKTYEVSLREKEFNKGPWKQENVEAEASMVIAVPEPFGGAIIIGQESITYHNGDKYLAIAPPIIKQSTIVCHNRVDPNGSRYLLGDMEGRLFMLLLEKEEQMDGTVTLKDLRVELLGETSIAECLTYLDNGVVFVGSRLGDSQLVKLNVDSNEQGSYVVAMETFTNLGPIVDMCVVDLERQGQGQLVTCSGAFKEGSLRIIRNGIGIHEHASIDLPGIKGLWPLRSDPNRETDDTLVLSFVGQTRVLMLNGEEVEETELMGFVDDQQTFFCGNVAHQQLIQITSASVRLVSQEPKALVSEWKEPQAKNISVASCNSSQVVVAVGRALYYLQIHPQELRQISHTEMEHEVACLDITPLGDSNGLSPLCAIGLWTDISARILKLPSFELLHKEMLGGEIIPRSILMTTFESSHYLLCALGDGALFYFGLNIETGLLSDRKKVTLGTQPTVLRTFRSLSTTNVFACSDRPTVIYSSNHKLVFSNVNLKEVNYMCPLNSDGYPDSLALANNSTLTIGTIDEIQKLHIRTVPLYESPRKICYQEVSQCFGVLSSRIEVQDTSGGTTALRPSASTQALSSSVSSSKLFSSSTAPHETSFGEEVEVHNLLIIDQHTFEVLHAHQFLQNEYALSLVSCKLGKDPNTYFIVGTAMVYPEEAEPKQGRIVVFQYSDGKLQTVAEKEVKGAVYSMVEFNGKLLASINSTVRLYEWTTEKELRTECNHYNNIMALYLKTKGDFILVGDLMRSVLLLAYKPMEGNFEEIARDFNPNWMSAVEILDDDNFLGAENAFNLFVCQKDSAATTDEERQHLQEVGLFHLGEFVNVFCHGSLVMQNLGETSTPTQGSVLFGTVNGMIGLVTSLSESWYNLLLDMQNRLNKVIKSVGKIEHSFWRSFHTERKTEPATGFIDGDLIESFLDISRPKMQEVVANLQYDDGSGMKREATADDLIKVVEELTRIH
ERα_LBD (GST), sequence (P03372 311-547): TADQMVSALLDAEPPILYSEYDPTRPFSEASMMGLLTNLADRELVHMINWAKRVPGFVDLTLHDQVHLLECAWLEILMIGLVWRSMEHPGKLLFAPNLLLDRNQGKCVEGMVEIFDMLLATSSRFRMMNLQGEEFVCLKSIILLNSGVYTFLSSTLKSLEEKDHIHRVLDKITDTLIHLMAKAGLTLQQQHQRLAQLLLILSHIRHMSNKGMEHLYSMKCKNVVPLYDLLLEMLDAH

Structure (SMILES) | IC50 (CRBN/DDB1) | DC50 (ER in T47D cells; 16 hrs treatment) | Dmax (ER in T47D cells; [1]) | IC50 (ERα_LBD (GST)) | Dmax (ER in MCF-7 cells; [2]) | DC50 (ER in MCF-7 cells; 16 hrs treatment) | Dmax (ER in T47D cells; [3]) | Dmax (ER in MCF-7 cells; [4])
O=C1CC[C@H](N2Cc3c(ccc4c3OCC43CCN(CC4CC5(CCN(c6ccc([C@@H]7c8ccc(O)cc8CC[C@@H]7c7ccccc7)cn6)CC5)C4)CC3)C2=O)C(=O)N1 [Compound A116, (S)-3-(1′-((7-(5-((1S,2S)-6-hydroxy-2-phenyl-1,2,3,4-tetra-hydronaphthalen-1-yl)pyridin-2-yl)-7-azaspiro[3.5]nonan-2-yl)methyl)-6-oxo-6,8-dihydro-2H,7H-spiro[furo[2,3-e]iso-indole-3,4′-piperidin]-7-yl)-piperidine-2,6-dione] | < 50 nM | < 1 nM | > 75% | < 10 nM | 50 to 75% | < 1 nM |  | 
O=C1CCC(NC(=O)c2ccc3c(n2)OC[C@H]2CN(CC4CCN(c5ccc([C@@H]6c7ccc(O)cc7CC[C@@H]6c6ccccc6)cc5)CC4)CCN32)C(=O)N1 (stereo partly drawn) [Compound A2, (4aR)-N-(2,6-dioxopiperidin-3-yl)-3-((1-(4-((1R,2S)-6-hydroxy-2-phenyl-1,2,3,4-tetrahydronaphthalen-1-yl)-phenyl)piperidin-4-yl)meth-yl)-1,2,3,4,4a,5-hexahydro-pyrazino[1,2-d]pyrido[2,3-b] [1,4]oxazine-8-carboxamide] | 500 to 5000 nM | < 1 nM |  | < 10 nM |  | < 1 nM | > 75% | > 75%
COc1cc(N2CCC3(CC2)CC(CN2CCC4(CC2)COc2c4ccc4c2CN([C@H]2CCC(=O)NC2=O)C4=O)CO3)ccc1[C@H]1c2ccc(O)cc2CC[C@H]1c1ccccc1 (stereo partly drawn) [Compound A54, (3S)-3-(1′-((8-(4-((1R,2R)-6-hydroxy-2-phenyl-1,2,3,4-tetrahydronaphthalen-1-yl)-3-methoxyphenyl)-1-oxa-8-azaspiro[4.5]decan-3-yl)methyl)-6-oxo-6,8-dihydro-2H,7H-spiro[furo[2,3-e]isoindole-3,4′-piperidin]-7-yl)piperidine-2,6-dione] | < 50 nM | < 1 nM | > 75% | < 10 nM | 50 to 75% | < 1 nM |  | 
O=C1CC[C@H](NC(=O)c2ccc3c(n2)OC[C@H]2CN(CC4CCN(c5ccc([C@@H]6c7ccc(O)cc7CC[C@@H]6c6ccccc6)cc5)CC4)CCN32)C(=O)N1 (single isomer, unassigned) [Compound A6] | 500 to 5000 nM | < 1 nM |  | < 10 nM |  | < 1 nM | 50 to 75% | 50 to 75%
O=C1CC[C@H](N2Cc3c(ccc4c3OC[C@H]3CN(CC5CCC6(CC5)CN(c5ccc([C@@H]7c8ccc(O)cc8CC[C@@H]7c7ccccc7)cn5)C6)CCN43)C2=O)C(=O)N1 (single isomer, unassigned) [Compound A123] |  |  |  | < 10 nM |  |  | > 75% | > 75%
COC1(CN2CCN3c4ccc5c(c4OC[C@H]3C2)CN([C@H]2CCC(=O)NC2=O)C5=O)CCN(c2ccc([C@@H]3c4ccc(O)cc4CC[C@@H]3c3ccccc3)cc2)CC1 [Compound A82, (S)-3-((R)-7-((1-(4-((1R,2S)-6-hydroxy-2-phenyl-1,2,3,4-tetrahydronaphthalen-1-yl)-phenyl)-4-methoxypiperidin-4-yl)methyl)-1-oxo-1,3,5,5a,6,7,8,9-octahydro-2H-pyrazino [1′,2′:4,5][1,4]oxazino[2,3-c]isoindol-2-yl)piperidine-2,6-dione] | 50 to 500 nM |  |  | < 10 nM |  | < 1 nM |  | > 75%
O=C1CC[C@H](N2Cc3c(ccc4c3OCC43CCN(CC4CCC5(CC4)CN(c4ccc([C@@H]6c7ccc(O)cc7CC[C@@H]6c6ccccc6)cn4)C5)CC3)C2=O)C(=O)N1 [Compound A131, (S)-3-(1′-((2-(5-((1S,2S)-6-hydroxy-2-phenyl-1,2,3,4-tetrahydronaphthalen-1-yl)pyridin-2-yl)-2-azaspiro[3.5]nonan-7-yl)methyl)-6-oxo-6,8-dihydro-2H,7H-spiro[furo[2,3-e]isoindole-3,4′-piperidin]-7-yl)piperidine-2,6-dione] | < 50 nM |  |  | < 10 nM | > 75% | < 1 nM |  | 
COc1cc(N2CCC3(CC2)CC(CN2CCC(c4ccc(N[C@H]5CCC(=O)NC5=O)cc4)CC2)C3)c(F)cc1[C@@H]1c2ccc(O)cc2CC[C@@H]1c1ccccc1 (single isomer, unassigned) [Compound A30] |  | < 1 nM |  | < 10 nM |  | < 1 nM | > 75% | 50 to 75%
COc1cc(N2CCC3(CC2)CC(CN2CCN4c5ccc6c(c5OC[C@H]4C2)CN([C@H]2CCC(=O)NC2=O)C6=O)C3)c(F)cc1[C@@H]1c2ccc(O)cc2CC[C@@H]1c1ccccc1 [Compound A99, (S)-3-((R)-7-((7-(2-fluoro-4-((1S,2S)-6-hydroxy-2-phenyl-1,2,3,4-tetrahydronaphthalen-1-yl)-5-methoxyphenyl)-7-azaspiro[3.5]nonan-2-yl)methyl)-1-oxo-1,3,5,5a,6,7,8,9-octahydro-2H-pyrazino[1′,2′:4,5][1,4]oxazino[2,3-e]isoindol-2-yl)piperidine-2,6-dione] |  | < 1 nM |  | < 10 nM |  | < 1 nM | > 75% | > 75%
COc1cc(N2CCC(CN3CCC4(CC3)COc3cc5c(cc34)CN([C@H]3CCC(=O)NC3=O)C5=O)CC2)ccc1[C@@H]1c2ccc(O)cc2CC[C@@H]1c1ccccc1 [Compound A33, (R)-3-(1′-((1-(4-((1R,2R)-6-hydroxy-2-phenyl-1,2,3,4-tetrahydronaphthalen-1-yl)-3-methoxyphenyl)piperidin-4-yl)methyl)-7-oxo-5,7-dihydro-2H,6H-spiro[furo[2,3-f]iso-indole-3,4′-piperidin]-6-yl)-piperidine-2,6-dione] |  | < 1 nM | 50 to 75% | < 10 nM | 50 to 75% | < 1 nM |  | 
COc1cc(N2CCC3(CC2)CC(CN2CCN4c5cc6c(cc5OC[C@@H]4C2)C(=O)N([C@H]2CCC(=O)NC2=O)C6)CO3)ccc1[C@H]1c2ccc(O)cc2CC[C@H]1c1ccccc1 (single isomer, unassigned) [Compound A56] |  | < 1 nM | > 75% | < 10 nM | 50 to 75% | < 1 nM |  | 
COc1cc(N2CCC(CN3CCN4c5cc6c(cc5OC[C@@H]4C3)C(=O)N([C@H]3CCC(=O)NC3=O)C6)CC2)c(F)cc1[C@@H]1c2ccc(O)cc2CC[C@@H]1c1ccccc1 [Compound A91, (S)-3-((S)-3-((1-(2-fluoro-4-((1S,2S)-6-hydroxy-2-phenyl-1,2,3,4-tetrahydronaphthalen-1-yl)-5-methoxyphenyl)piperidin-4-yl)methyl)-8-oxo-3,4,4a,5-tetrahydro-1H-pyrazino[1′,2′: 4,5][1,4]oxazino[2,3-f]isoindol-9 (2H,8H,10H)-yl)piperidine-2,6-dione] |  | < 1 nM |  | < 10 nM |  | < 1 nM | > 75% | > 75%
O=C1CC[C@H](N2Cc3c(ccc4c3OCC43CCN(CC4CCC5(CC4)CN(c4ccc([C@@H]6c7ccc(O)cc7CC[C@@H]6c6ccccc6)cc4F)C5)CC3)C2=O)C(=O)N1 [Compound A161, (S)-3-(1′-((2-(2-fluoro-4-((1R, 2S)-6-hydroxy-2-phenyl-1,2,3,4-tetrahydronaphthalen-1-yl)phenyl)-2-azaspiro[3.5]nonan-7-yl)methyl)-6-oxo-6,8-dihydro-2H,7H-spiro[furo[2,3-e]isoindole-3,4′-piperidin]-7-yl)piperidine-2,6-dione] | < 50 nM |  |  | < 10 nM | 50 to 75% | < 1 nM |  | 
O=C1CC[C@H](N2Cc3c(ccc4c3OC[C@H]3CN(CC5CC6(CCN(c7ccc([C@@H]8c9ccc(O)cc9CC[C@@H]8c8ccccc8)cn7)CC6)C5)CCN43)C2=O)C(=O)N1 (single isomer, unassigned) [Compound A112] | 50 to 500 nM |  |  | < 10 nM |  | < 1 nM |  | > 75%
